From PMC8092170 (Indian Journal of Pharmacology, 2021)

Biological target: T1, peroxisome proliferator-activated receptor gamma (PPARγ) (Homo sapiens, UniProt P37231)
T1 sequence (P37231 223-505 limits assumed): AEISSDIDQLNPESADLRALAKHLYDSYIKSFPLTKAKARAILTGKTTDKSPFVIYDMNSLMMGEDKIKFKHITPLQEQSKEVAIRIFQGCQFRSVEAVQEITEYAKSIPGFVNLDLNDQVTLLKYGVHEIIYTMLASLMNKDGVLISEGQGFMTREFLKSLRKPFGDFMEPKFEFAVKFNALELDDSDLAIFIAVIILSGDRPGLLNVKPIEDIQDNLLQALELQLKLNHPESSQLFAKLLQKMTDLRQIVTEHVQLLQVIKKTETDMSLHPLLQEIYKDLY
Test: fluorescence polarization probe displacement
Assay type: binding

IC50: 23.9 µM
Compound: O=c1c(-c2ccc(O)cc2)coc2cc(O)cc(O)c12 [genistein]
